Results on eight compounds are retold here after US5173500A, “Pharmaceutical compositions and methods of sulphonamides containing a tetrazolyl radical” (Boehringer Mannheim GmbH, priority 1988, dated 1992).

For assay [1], the system named is thrombocyte aggregation induced by thromboxane mimetic U 46619 (TX antagonistic effect). As to the kind of experiment: Thrombocyte aggregation induced by U 46619 in platelet-rich plasma (method of Born and Cross). The assay is classed as cell-based. Conditions: Homo sapiens, 5 min; platelet-rich plasma of healthy blood donors; aggregation induced by U 46619, followed over 5 minutes. An excerpt:
Thrombocyte aggregation was investigated by the method of Born to Cross (J. Physiol. 168, 178 (1963)) in platelet-rich plasma of healthy blood donors. To inhibit clotting, the blood was mixed with 3.2% citrate in a ration by volume 1:9.
To induce thrombocyte aggregation, U 46619 (Upjohn & Co., Kalamazoo, Mich., USA), which is a stable analog of the prostagladin endoperoxide PHG2, was used. U 46619 has been characterized as a selective thromboxane mimetic (Coleman et al., Brit. J. Pharmacol. 68, 127 P., 1980).
The aggregation test was carried out in a 4-channel aggregometer (Profiler®, of the Bio/Data Co., USA). The course of the aggregation was followed over a period of 5 minutes. At the end of the test, the degree of aggregation attained was printed out. These values, which were obtained in the presence of different concentrations of the substance being tested, were used for the determination of the IC50 value for the TX antagonistic effect. The effectiveness varies inversely with the IC50 value.

The test system of assay [2] is Male NMRI mice challenged with lethal dose of U 46619. The assay can be described thus: Survival of mice after lethal i.v. injection of thromboxane mimetic U 46619. The assay is classed as in vivo. Conditions: Mus musculus, iv, lethal dose U 46619 (800-1000 ug/kg) i.v. after 4 hours; for responders at 1 mg/kg: 1 mg/kg by stomach tube in 1% methylcellulose, read-out: Survival Rate of Mouse 1 mg/kg, 4 h in %; for responders at 25 mg/kg: 25 mg/kg by stomach tube in 1% methylcellulose, read-out: Survival Rate of Mouse 25 mg/kg, 4 h in %. As to the method:
Male NMRI mice, with a body weight of 25 g, were used. The test substance was suspended in 1% methylcellulose and administered to the experimental animals with the aid of a stomach tube. The provacation test consisted of injecting a lethal dose (800-1000/ug/kg) of the thromboxane mimetic (U 46619, Upjohn Co.) rapidly into the tail vein. The duration of the specific antagonistic effect was tested by pretreating the animals with 25 or 1 mg/kg of the different test substances and injecting U 46619 after 4 hours. The survival rate indicates how many of the animals which were used survived the injection of the thromboxane mimetic.

pIC50: −log10 of the molar value.

In general, pIC50 refers to the negative decadic logarithm of the IC50, by convention in mol/L. In assay [1], `O=C(CCC(=O)c1ccc(CCNS(=O)(=O)c2ccc(Br)cc2)cc1)Nc1nnn[nH]1` [6/III, 4-Oxo-4-{4-[2-(4-bromobenzenesulphonamido)-ethyl]-phenyl}-butyric acid (1H-tetrazol-5-yl)-amide] gave a pIC50 of 4.26. In addition, in assay [2], the responders at 1 mg/kg was 100% and the responders at 25 mg/kg is 100%.

Compound `O=S(=O)(NCCc1ccc(Nc2nnn[nH]2)cc1)c1ccc(Cl)cc1` [Example 3, 4-[2-(4-Chlorobenzenesulphonamido)-ethyl]-N-(1H-tetrazole-5-yl)-aniline] showed a pIC50 in assay [1] of 6.70. In addition, in assay [2], the responders at 1 mg/kg came out at 20% and the responders at 25 mg/kg turned out to be 100%.

For `O=S(=O)(NCCc1ccc(Cc2nnn[nH]2)cc1)c1ccc(Cl)cc1` [Example 8, 5-{4-[2-(4-Chlorobenzenesulphonamido)-ethyl]-phenyl-methyl}-1H-tetrazole], the pIC50 in assay [1] was 7.15. In addition, in assay [2], the responders at 1 mg/kg worked out at 100% and the responders at 25 mg/kg was 100%.

The compound `O=C(COc1cccc(CCNS(=O)(=O)c2ccccc2Cl)c1)Nc1nnn[nH]1` [Example 16, 3-[2-(2-Chlorobenzenesulphonamido)-ethyl]-phenoxyacetic acid (1H-tetrazol-5-yl)-amide] showed a pIC50 in assay [1] of 4.77. Also, in assay [2], the responders at 1 mg/kg is 40% and the responders at 25 mg/kg stood at 100%.

For the compound `O=C(COc1cccc(CCNS(=O)(=O)c2ccc(Cl)cc2)c1)Nc1nnn[nH]1` [Example 2, 3-[2-(4-Chlorobenzenesulphonamido)-ethyl]-phenoxyacetic acid (1H-tetrazol-5-yl)-amide], the pIC50 in assay [1] was 5.22. Also, in assay [2], the responders at 1 mg/kg turned out to be 100% and the responders at 25 mg/kg was determined as 100%.

`O=C(COc1ccc(CCNS(=O)(=O)c2ccc(Cl)cc2)cc1)Nc1nnn[nH]1` [Example 4, 4-[2-(4-Chlorobenzenesulphonamido)-ethyl]-phenoxyacetic acid (1H-tetrazol-5-yl)-amide]: the pIC50 in assay [1] is 5.05. In addition, in assay [2], the responders at 1 mg/kg was 80% and the responders at 25 mg/kg came to 100%.

For the compound `O=C(Cc1ccc(CCNS(=O)(=O)c2ccc(Cl)cc2)cc1)Nc1nnn[nH]1` [Example 5, 4-[2-(4-Chlorobenzenesulphonamido)-ethyl]-phenylacetic acid (1H-tetrazol-5-yl)-amide], the pIC50 in assay [1] is 6.05. In assay [2], the responders at 1 mg/kg stood at 80% and the responders at 25 mg/kg came to 100%.

`Cc1ccc(S(=O)(=O)NCCc2cccc(OCC(=O)Nc3nnn[nH]3)c2)cc1` [Example 15, 3-[2-(4-Methylbenzenesulphonamido)-ethyl]-phenoxyacetic acid (1H-tetrazol-5-yl)-amide] gave a pIC50 in assay [1] of 4.62. Also, in assay [2], the responders at 1 mg/kg was 100% and the responders at 25 mg/kg amounted to 100%.
